In assay [1] the target is T1, rat liver HMG-CoA reductase (Rattus norvegicus, UniProt P51639).
T1 construct: from tissue; host or cells: rat liver microsomes
T1 sequence (P51639 1-887): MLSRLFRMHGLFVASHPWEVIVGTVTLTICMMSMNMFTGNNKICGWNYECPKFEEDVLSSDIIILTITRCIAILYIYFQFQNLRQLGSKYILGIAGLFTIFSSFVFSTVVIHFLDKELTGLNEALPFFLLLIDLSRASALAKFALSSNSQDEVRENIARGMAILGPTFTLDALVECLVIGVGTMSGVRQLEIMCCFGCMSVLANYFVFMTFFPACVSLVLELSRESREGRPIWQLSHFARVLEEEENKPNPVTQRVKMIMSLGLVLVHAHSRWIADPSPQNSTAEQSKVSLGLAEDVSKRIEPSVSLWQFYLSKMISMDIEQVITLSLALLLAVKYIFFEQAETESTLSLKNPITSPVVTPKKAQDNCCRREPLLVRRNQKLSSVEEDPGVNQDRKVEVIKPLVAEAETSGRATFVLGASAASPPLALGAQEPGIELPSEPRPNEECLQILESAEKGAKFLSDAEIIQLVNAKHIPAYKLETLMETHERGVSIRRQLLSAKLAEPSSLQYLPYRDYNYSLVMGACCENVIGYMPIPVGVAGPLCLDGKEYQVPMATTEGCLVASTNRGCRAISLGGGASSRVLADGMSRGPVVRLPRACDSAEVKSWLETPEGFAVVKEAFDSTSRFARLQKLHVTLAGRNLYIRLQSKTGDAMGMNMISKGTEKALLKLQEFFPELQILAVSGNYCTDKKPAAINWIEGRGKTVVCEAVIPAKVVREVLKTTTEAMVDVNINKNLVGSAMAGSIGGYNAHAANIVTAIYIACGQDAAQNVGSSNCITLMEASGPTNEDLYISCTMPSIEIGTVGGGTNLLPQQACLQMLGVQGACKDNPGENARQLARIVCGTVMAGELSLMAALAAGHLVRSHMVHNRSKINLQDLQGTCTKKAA
Nature of the assay: Test A: In Vitro Inhibition of Microsomal HMG-CoA Reductase. The format is biochemical. To be noted: microsomal rat liver enzyme; [3-14C]-HMG-CoA 0.33 mM, NADPH 3.0 mM; pH 7.2. On the procedure:
Test A: In Vitro Inhibition of Microsomal HMG-CoA Reductase:
The intact, fully activated microsomal form of rat liver HMG-CoA reductase (subunit MW ca 100,000 daltons) was prepared as described by Parker, et al., Biochem. Biophys. Res. Commun., 125, 629-635 (1984), and used as the source of enzyme for assays. HMG-CoA reductase activity was determined essentially by the method of Shapiro, et al., Biochem. Biophys. Acta., 370, 369-377 (1974), with modifications as described by Ingebritsen and Gibson, Meth. Enzymol. 71, 486-497 (1981) with the exception that the internal standard ^3 H-mevalonolactone is added after termination of the assay. In this procedure, the enzyme is assayed by measuring the formation of product, ^14 C-mevalonate, from the substrate, [3-^14 C]-HMG-CoA, in the presence of NADPH. The ^14 C-mevalonate is converted to its lactone and isolated by silica thin-layer chromatography (Whatman LK5D, developed in 50:50 benzene:acetone) in the presence of ^3 H-mevalonolactone as an internal standard. Assays were conducted under conditions in which product formation was linear with respect to time and enzyme concentration.
To measure reductase inhibition, test compounds dissolved in water or dimethylsulfoxide and diluted in buffer A (50 mM imidazole-HCl, 250 mM NaCl, 1 mM EDTA, 1 mM EGTA, 5 mM DTT, 20 μM leupeptin, pH=7.2) were incubated with aliquots of microsomes (80-160 μg protein in buffer A) followed by addition of d,1-[3-^14 C]-HMG-CoA (0.33 mM, 2.0 dpm/picomole) and NADPH (3.0 mM). The 50 percent inhibitory concentration (IC50) for each compound in Table 1 was calculated from the linear regression line of the percent decrease (from control) in enzyme activity vs. log concentration of inhibitor, determined using at least 4 dilutions of each test compound assayed in duplicate.

Assay [2] deals with Isolated Hepatocyte Cholesterol Biosynthesis. The assay is described as follows: Test B: Isolated Hepatocyte Cholesterol Biosynthesis Assay. It counts as cell-based, male Wistar rats. The note with it: isolated rat hepatocytes, 10 min preincubation, 60 minutes at 37°, incorporation into sterols, read-out: Inhibition of Isolated Hepatocyte Cholesterol Biosynthesis IC50. As to the method: Test B: Isolated Hepatocyte Cholesterol Biosynthesis Assay:
Intact parenchymal hepatocytes were isolated from male Wistar rats (180-280 g) fed cholestyramine-containing or normal diet, using the collagenase perfusion method essentially as described by Seglen, in Methods in Cell Biology (D. Prescott, ed.) Vol. 13, pp. 29-83, Academic Press, New York (1976). Cell preparations were used only when viability (trypan blue exclusion) exceeded 90%. Cholesterol biosynthesis was determined as the incorporation by hepatocytes of ^3 H from [^3 H]-water into total (cellular plus medium) 3β-hydroxy sterols as per Ingebritsen, et al., J. Biol. Chem., 254, 9986-9989 (1979). Hepatocyte sterols and lipids were isolated by a modification of the methods described by Kates, in Techniques in Lipidology, (M. Kates, ed.), pp. 349, 360-363, North Holland Publ. Co., Amsterdam, 1972. […] The ^3 H-labelled sterols are quantified by liquid scintillation and corrected for counting efficiency. […]
Cells were preincubated for 10 minutes with or without aliquots of test compounds added as water solutions of sodium salts or as dimethylsulfoxide solutions of lactones. […] The IC50 for inhibition of sterol synthesis by test compounds which is shown in Table 2 was calculated from the linear regression curve of % inhibition (compared to controls) vs. log concentration using at least 4 concentrations of inhibitor. […]

Assay [3] relates to de novo biosynthesis of cholesterol. The assay is described as follows: Test C: In Vivo Acute Cholesterol Biosynthesis Inhibition in Rats. The note with it: Rattus norvegicus, 1 h. Further details: species or system male Wistar rats. On the procedure: Test C: In Vivo Acute Cholesterol Biosynthesis Inhibition in Rats:
Male Wistar rats (160-200 g, housed 2 per cage) were maintained on normal diet (Purina Rat Chow and water, ad libitum) for at least 7 days on a reversed lighting schedule (7:00 a.m. to 5:00 p.m. dark). Food was removed 15 hours prior to dosing. Compounds were administered at 8:00 a.m. by intragastric intubation using 0.5-1.0 mL of water or propylene glycol solutions of sodium salts, lactones, or esters of the test compounds. Controls received equal volumes of the vehicle.
Thirty minutes after receiving the test substances, rats were injected intraperitoneally with 0.9 mL of 0.9% NaCl containing approximately 120 μCi per kg body weight of sodium [1-^14 C] acetate (1-3 mCi/mmol). After a 60 minute incorporation period, rats were sacrificed and liver and blood samples were obtained. Aliquots of plasma (1.0 mL) obtained by centrifugation of heparin+EDTA-treated blood, and aliquots of liver homogenates (equivalent to 0.50 g liver wet weight) were taken for determination of radiolabeled 3β-hydroxy sterols. Sterol isolation for the liver samples followed the method of Kates as described above for the hepatocyte procedure (Test B) while the plasma samples were directly saponified followed by isolation of the digitonin-precipitable sterols. ^14 C-labelled sterols were quantified by liquid scintillation counting (efficiency corrected). Mean percent inhibition of ^14 C incorporated into liver and into plasma cholesterol were calculated for groups of treated animals and compared to mean values for controls conducted simultaneously.
Therefore, Test C provides information on the ability of test substances to suppress the de novo biosynthesis of cholesterol in vivo in rats with oral dosing.

The structures appear in SMILES notation. Read-outs that look alike come from different tables or passages of the source.

Regarding `CCOC(=O)C[C@H](O)C[C@H](O)/C=C/C(=C(c1ccc(F)cc1)c1ccc(F)cc1)c1nnnn1C` (relative stereo) [Example 11, Ethyl (±)-erythro-9,9-bis(4-fluorophenyl)-3,5-dihydroxy-8-(1-methyl-1H-tetrazol-5-yl)-6,8-nonadienoate], in assay [1], the IC50 (in general, the concentration that gives 50% inhibition) was above 330000 nM.

For the compound `Cn1nnnc1C(/C=C/C=C/[C@@H](O)C[C@@H](O)CC(=O)O)=C(c1ccc(F)cc1)c1ccc(F)cc1` (relative stereo) [Example 15, Sodium (±)-erythro-11,11-bis(4-fluorophenyl)-3,5-dihydroxy-10-(1-methyl-1H-tetrazol-5-yl)-6,8,10-undecatrienoate], the midpoint of inhibition in assay [1], the IC50, lay at 5700 nM.

On to `Cn1nnnc1C(/C=C/[C@@H]1C[C@@H](O)CC(=O)O1)=C(c1ccc(F)cc1)c1ccc(F)cc1` (relative stereo) [Example 13, Trans-6-[4,4-bis(4-fluorophenyl)-3-(1-methyl-1H-tetrazol-5-yl)-1,3-butadienyl]-tetrahydro-4-hydroxy-2H-pyran-2-one], for which half-maximal inhibition in assay [1] (IC50) required 1090 ± 290 nM.

On to `Cn1nnnc1C(/C=C/[C@@H](O)C[C@@H](O)CC(=O)O)=C(c1ccc(F)cc1)c1ccc(F)cc1` (relative stereo) [Example 12, Sodium (±)-erythro-9,9-bis(4-fluorophenyl)-3,5-dihydroxy-8-(1-methyl-1H-tetrazol-5-yl)-6,8-nonadionate], for which the IC50 in assay [1] worked out at 37 ± 10 nM; in assay [2], 23 ± 11 nM. In addition, the ED50 was determined as 0.08 mg/kg in assay [3] (read-out: 50% Inhibitory Dose (ED50), liver cholesterol, oral (intragastric), liver, 14C-acetate incorporation 60 minutes) and 0.08 mg/kg in assay [3] (read-out: 50% Inhibitory Dose (ED50), plasma cholesterol, oral (intragastric), plasma, 14C-acetate incorporation 60 minutes).

Regarding `CC[C@H](C)C(=O)O[C@H]1C[C@@H](C)C=C2C=C[C@H](C)[C@H](CC[C@@H]3C[C@@H](O)CC(=O)O3)[C@H]21` [Mevinolin (Lovastatin), reference compound], the IC50 in assay [2] amounted to 46 ± 26 nM. Moreover, in assay [3] (oral (intragastric), 14C-acetate incorporation 60 minutes, read-out: ED50 value (reference agent, tissue not stated)), the ED50 is 0.04 mg/kg.

Source of the values: US4897490A, “Antihypercholesterolemic tetrazole compounds” (Bristol-Meyers Company, priority 1988, dated 1990).
